Assay results published in ChEMBL document CHEMBL5308504, “Tm Shift (DSF) assay results for EUbOPEN Chemogenomics Library” (2023).
Where “and” joins values, the source holds several entries; their conditions need not be identical. Identical values can stand only once.

What was measured:
Peregrin (Homo sapiens) = target: T1, Peregrin (Homo sapiens) (UniProt P55201); settings: Compound concentration 20.0 uM, Protein concentration 2.0 uM, Result type QC Liability
T1 sequence (whole entry): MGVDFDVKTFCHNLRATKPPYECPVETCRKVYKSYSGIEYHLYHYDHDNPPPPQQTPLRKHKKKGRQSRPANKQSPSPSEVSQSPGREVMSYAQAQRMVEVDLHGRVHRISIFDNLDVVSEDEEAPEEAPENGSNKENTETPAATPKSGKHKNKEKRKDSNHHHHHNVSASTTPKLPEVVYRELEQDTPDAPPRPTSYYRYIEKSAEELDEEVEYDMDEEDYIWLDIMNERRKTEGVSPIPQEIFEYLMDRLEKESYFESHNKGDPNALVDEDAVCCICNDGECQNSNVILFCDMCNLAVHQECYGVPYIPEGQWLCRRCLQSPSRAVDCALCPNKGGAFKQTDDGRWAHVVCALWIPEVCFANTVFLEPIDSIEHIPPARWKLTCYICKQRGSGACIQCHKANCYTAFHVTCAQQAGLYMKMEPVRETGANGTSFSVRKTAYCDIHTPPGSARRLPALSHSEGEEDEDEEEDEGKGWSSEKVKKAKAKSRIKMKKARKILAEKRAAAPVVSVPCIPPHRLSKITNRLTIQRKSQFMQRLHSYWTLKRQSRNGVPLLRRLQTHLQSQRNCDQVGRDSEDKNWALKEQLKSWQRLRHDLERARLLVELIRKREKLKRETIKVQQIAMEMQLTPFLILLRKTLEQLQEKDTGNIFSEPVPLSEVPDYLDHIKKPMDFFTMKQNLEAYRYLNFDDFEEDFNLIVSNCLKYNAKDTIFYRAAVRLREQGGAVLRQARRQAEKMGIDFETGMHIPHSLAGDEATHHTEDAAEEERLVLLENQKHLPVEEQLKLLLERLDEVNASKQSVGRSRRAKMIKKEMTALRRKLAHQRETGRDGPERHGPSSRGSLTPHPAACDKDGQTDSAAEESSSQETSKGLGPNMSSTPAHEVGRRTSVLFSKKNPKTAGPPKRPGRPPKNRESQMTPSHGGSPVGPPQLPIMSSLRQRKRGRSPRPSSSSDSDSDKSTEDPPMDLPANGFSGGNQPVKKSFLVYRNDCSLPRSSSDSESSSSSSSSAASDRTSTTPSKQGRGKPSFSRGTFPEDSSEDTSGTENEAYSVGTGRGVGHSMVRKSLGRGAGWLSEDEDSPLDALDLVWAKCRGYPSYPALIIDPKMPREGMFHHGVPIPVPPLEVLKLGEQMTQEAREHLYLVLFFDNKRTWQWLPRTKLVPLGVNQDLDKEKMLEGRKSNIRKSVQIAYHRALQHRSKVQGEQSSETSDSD

[1] = target: Fibroblast growth factor receptor 3 (Homo sapiens) (UniProt P22607); settings: Compound concentration 20.0 uM, Protein concentration 2.0 uM, Result type QC Liability
Chain of Fibroblast growth factor receptor 3 (Homo sapiens) (P22607 23-806 limits assumed): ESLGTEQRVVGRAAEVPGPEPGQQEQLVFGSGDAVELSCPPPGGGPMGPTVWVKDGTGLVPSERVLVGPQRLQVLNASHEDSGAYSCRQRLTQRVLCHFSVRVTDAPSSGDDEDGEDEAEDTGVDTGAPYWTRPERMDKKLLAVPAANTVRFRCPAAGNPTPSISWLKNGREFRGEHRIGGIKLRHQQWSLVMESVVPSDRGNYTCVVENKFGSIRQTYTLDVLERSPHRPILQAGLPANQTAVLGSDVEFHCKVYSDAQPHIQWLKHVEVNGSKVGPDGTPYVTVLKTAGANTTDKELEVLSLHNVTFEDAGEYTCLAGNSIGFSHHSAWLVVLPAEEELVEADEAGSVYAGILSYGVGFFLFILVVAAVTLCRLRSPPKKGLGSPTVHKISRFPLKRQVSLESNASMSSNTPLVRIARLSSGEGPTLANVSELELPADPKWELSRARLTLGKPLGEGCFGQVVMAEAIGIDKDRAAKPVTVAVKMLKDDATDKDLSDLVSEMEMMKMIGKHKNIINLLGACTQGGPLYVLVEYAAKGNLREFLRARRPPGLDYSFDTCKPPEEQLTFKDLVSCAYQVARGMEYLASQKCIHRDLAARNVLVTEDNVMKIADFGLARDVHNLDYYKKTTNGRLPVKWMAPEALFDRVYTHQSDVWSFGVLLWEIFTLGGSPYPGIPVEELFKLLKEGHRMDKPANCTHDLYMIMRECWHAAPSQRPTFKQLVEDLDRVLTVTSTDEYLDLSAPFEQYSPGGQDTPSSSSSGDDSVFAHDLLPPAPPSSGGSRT
Description: Thermal Shift Assay. Domain: start/stop: P449-E759

SMILES	ΔTm (Peregrin (Homo sapiens))	ΔTm [1]
CN1CCC(C#N)(NC(=O)[C@@H](NC(=O)N2CCOCC2)C(C)(C)C)CC1	-2.33 °C	0.67 °C
CC(C)(O)c1coc(S(=O)(=O)NC(=O)Nc2c3c(cc4c2CCC4)CCC3)c1	-2.87 °C	0.84 °C
COc1ccccc1N1CCN(c2ncnc3c2cnn3-c2ccccc2)CC1	-1.23 °C	0.51 °C
CC1CCN(C(=O)[C@H](CCn2cccc2C#N)NS(=O)(=O)c2cccc3[nH]ccc23)CC1	-2.12 °C	0.35 °C
CC(C)(C#Cc1ccc(NC(=O)COc2ccccc2C(=O)c2ccccc2)c(Cl)c1)C(=O)O	-4.06 °C	0.52 °C
Cc1ccc2c(N)c(C(=O)NC3CCc4cc(N5CC6CCC(C5)N6)ccc4C3)sc2n1 (stereo not given)	-1.37 °C	0.55 °C
CNc1ncc2cc(-c3ccc(-c4cccc(C)n4)cc3Cl)c(=O)n(C[C@H]3OC[C@H](N)CO3)c2n1	-2.41 °C	1.85 °C
CNc1nc(Nc2ccc(C(=O)N3CCOCC3)cc2OC)ncc1Cl	-1.86 °C	0.95 °C
CN[C@@H]1CC[C@@H](c2ccc(Cl)c(Cl)c2)c2ccccc21	-1.62 °C	0.61 °C
CN(C)C(=O)c1sc2nc(N3CCC(S(C)(=O)=O)CC3)cc(C(F)(F)F)c2c1N	-2.57 °C and -1.49 °C	0.65 °C and 1.05 °C
CCn1ccc(Nc2ncc3c(n2)-c2c(nn(C)c2-c2ccc(-c4cnn(C)c4)cc2Cl)CC3)n1	-0.93 °C	2.93 °C
COc1cc(-c2cncc(-c3ccc(N4CCN(C(C)C)CC4)cc3)c2C)cc(F)c1C(=O)N1CCCC1	-1.67 °C	0.64 °C
Cc1cc(SCc2sc(-c3ccc(C(F)(F)F)cc3)nc2C)ccc1OCC(=O)O	-1.59 °C	1.04 °C
O=C(NC1CCNCC1)c1n[nH]cc1NC(=O)c1c(Cl)cccc1Cl	-1.28 °C	0.78 °C
CC(C=CC1=C(C)CCCC1(C)C)=CC=CC(C)=CC(=O)O	-2.28 °C	0.68 °C
CC(C)(O)[C@H](F)CN1Cc2cc(NC(=O)c3cnn4cccnc34)c(N3CCOCC3)cc2C1=O	-1.78 °C	2.76 °C
CCc1nc(-c2cccc(C)c2)c(-c2ccnc(NC(=O)c3ccccc3)c2)s1	-2.72 °C	-0.84 °C
CN1CCCN(C(=O)c2cccc(-c3ccc(/C=C4/C(=O)Nc5ccc(Cl)cc54)o3)c2)CC1	-2.53 °C	2.18 °C
CCN1C(=O)C(c2cccc(C(=O)O)c2)C(=O)N(c2ccccc2)c2cc(C(F)(F)F)ccc21 (stereo not given)	-1.55 °C	0.62 °C
CS(C)(=O)=Nc1ccc(-c2ccc(-c3nc4[nH]c(O[C@@H]5CO[C@H]6[C@@H]5OC[C@H]6O)nc4cc3Cl)cc2)cc1	-3.2 °C	0.49 °C
N#Cc1ccc(COc2ccc(Br)cc2CNCCO)cn1	0.18 °C	0.63 °C
CCCCNc1ncc2c(-c3ccc(CN4CCN(C)CC4)cc3)cn([C@H]3CC[C@H](O)CC3)c2n1	-3.2 °C	7.9 °C
CC[C@H](NC(=O)[C@H](C)NC)C(=O)N1C[C@@H](O)C[C@H]1Cc1c(-c2[nH]c3cc(F)ccc3c2C[C@@H]2C[C@H](O)CN2C(=O)[C@H](CC)NC(=O)[C@H](C)NC)[nH]c2cc(F)ccc12	-1.75 °C	0.75 °C
CCOC(=O)CS(=O)(=O)c1ccc([C@@H](CO)NC(=O)c2cc3c(Cl)c(Cl)c(C)cc3n2C)cc1	-8.76 °C	2.82 °C
O=C(Cc1ccccc1)Nc1nnc(N2CC[C@@H]3[C@H]2CN3c2cccnn2)s1	-0.69 °C	0.51 °C
CC(=O)N1CCC(c2ccc(C(=O)NC3=NCCN3)cc2C(F)(F)F)CC1	-1.55 °C	0.6 °C
C=C(F)C(=O)N1CCN(c2nc(OC[C@@H]3CCCN3C)nc3c2CCN(c2cccc4cccc(Cl)c24)C3)C[C@@H]1CC#N	-3.96 °C	0.12 °C
CCN(C(=O)CO)[C@H]1CN(/C(=N\C#N)Nc2cccc(OC(F)F)c2)N=C1c1ccc(Cl)c(Cl)c1	-1.11 °C	0.47 °C
CC1(C)C(=O)N([C@H]2CCc3c(O)cccc32)c2nc(Nc3cccc(CN4CCCC4)c3)ncc21	-1.23 °C	9.18 °C
Cc1ccccc1Oc1cc(-n2c(=O)cc(C(F)(F)F)[nH]c2=O)c2ccccc2c1Cl	-1.36 °C	0.76 °C

Results, then the molecule that gave them:

ΔTm (Peregrin (Homo sapiens))	ΔTm [1]	SMILES
-1.29 °C	0.7 °C	CCc1ncnc(N2CCN(C(C)=O)CC2)c1C#Cc1ccc(N)nc1
-2.14 °C	0.85 °C	Cc1cc(CN)cc(C)c1-c1ncn(C)c1-c1ccnc2cc(F)ccc12
0.22 °C	1.84 °C	CC(C)N1CCN(Cc2cnc(-c3cc(-c4cccc5[nH]ccc45)cc4[nH]ncc34)o2)CC1
-5.87 °C	-0.33 °C	O=C(O)c1cccc(C2=C(c3cc(Cl)ccc3OCc3ccc(F)cc3F)CCC2)n1
-0.66 °C	0.81 °C	Cn1ncc(NC(=O)c2nc(-c3c(F)cccc3F)sc2N)c1N1CC[C@@H](N)[C@H](F)CC1
-0.35 °C	0.29 °C	CC(C)(C)c1cnc(CSc2cnc(NC(=O)C3CCN(CC(=O)NCCOCCOCCOCCNc4cccc5c4C(=O)N(C4CCC(=O)NC4=O)C5=O)CC3)s2)o1 (stereo not given)
-2.26 °C	0.72 °C	CC1(C)CCN(C(=O)C2CN(c3c4c(nc5ccnn35)CCNCC4)C2)C1
-3.79 °C	0.7 °C	Cc1nn(-c2nc3ccc(Cl)c(Cl)c3[nH]2)c(O)c1C1OC(=O)c2ccccc21 (stereo not given)
-1.04 °C	0.54 °C	Cc1n[nH]c2ncc(C(=O)N3CCC[C@H]3c3ccc(Cl)cc3)cc12
-0.34 °C	-0.69 °C	CC(=O)c1c(C)c2cnc(Nc3ccn(C)n3)nc2n(C2CCCC2)c1=O
-1.23 °C	-1.02 °C	CC#CC(=O)N1CCN(c2nc(-c3ccc(Oc4ccccc4)cc3)c(C(N)=O)s2)CC1
-0.98 °C	0.69 °C	O=C(Nc1ccc(Cl)c(-c2ccccn2)c1)c1cccc(COc2ccc(Br)cc2CNCCO)c1
-1.64 °C	0.56 °C	CC1CNCCc2c1nc1ccnn1c2N1CC(C(=O)N2CCC(C)(C)C2)C1 (stereo not given)
-15.3 °C	-2.24 °C	Cc1cc(OCCC(C)(C)O)cc(C)c1-c1ccc(F)c2c1CC[C@H]2Oc1ccc2c(c1)OC[C@H]2CC(=O)O
-1.34 °C	0.48 °C	COc1ccc(COc2ccc(Cc3cnc(N)nc3N)cc2OC)cc1
-2.93 °C	0.78 °C	CC(C)C[C@H](NC(=O)[C@@H](O)[C@H](N)Cc1ccccc1)C(=O)O
-2.65 °C	1.42 °C	CN[C@@H](C)C(=O)N[C@H](C(=O)N1CCC[C@H]1C(=O)N[C@H]1c2ccccc2C[C@H]1OCC#CC#CCO[C@@H]1Cc2ccccc2[C@@H]1NC(=O)[C@@H]1CCCN1C(=O)[C@@H](NC(=O)[C@H](C)NC)C1CCCCC1)C1CCCCC1
-0.25 °C	0.55 °C	CNS(=O)(=O)c1ccc(N(C)C)c(Nc2ncnc3cc(OC)c(OC)cc23)c1
-3.49 °C	0.86 °C	Cc1cc(Cn2c(N3CC4(CNC4)C3)nc3c(N4CCN(C)CC4)cc(Cl)cc32)cc(C)c1F
-0.5 °C	0.11 °C	Cc1ccc(NS(=O)(=O)c2ccc3c(c2)C2C=CCC2C(c2ccc(C(=O)O)cc2)N3)cc1C (stereo not given)
-1.73 °C	0.48 °C	COc1cc(C(N)=O)nc(-c2cccc(C#C[C@]3(O)CCN(C)C3=O)c2)c1
-2.61 °C	0.57 °C	Cn1cnc(Cn2ccc3ccc(CNCc4[nH]c5ccccc5c4[C@H]4NC(=O)c5ccc(O)cc54)cc32)c1
-1.47 °C	0.58 °C	CCc1ccc(-c2ncn(CC3(F)CCN(C)CC3)c2-c2ccnc3[nH]ccc23)nc1
0.1 °C	0.93 °C	COc1cc(-c2cn[nH]c2)ccc1C(=O)Nc1ccc2c(c1)CCNCC2
-2.19 °C	1 °C	CN(C)[C@H]1CCN(c2cc(C(F)(F)F)c(C#N)c(Nc3cccc(CCC(=O)O)c3)n2)C1
-3.83 °C	0.98 °C	CC(C)c1nc2c(c3c1[C@@H](c1ccc(C(F)(F)F)cc1)OC31CCOCC1)[C@@H](O)CC(C)(C)C2
-0.77 °C	0.74 °C	COc1ccccc1-c1cc(Nc2cccc(CS(N)(=O)=O)c2)ncn1
-0.61 °C	0.4 °C	O=C(Nc1cc2cc[nH]c(=O)c2cc1Cl)[C@H]1CNC[C@@H]1c1cccnc1
-1.54 °C	0.59 °C	O=S(=O)(Nc1ccc(C(O)(C(F)(F)F)C(F)(F)F)cc1)c1cccs1
-1.11 °C	2.03 °C	CNc1ncc2cc(-c3ccc(-c4ncccc4F)cc3Cl)c(=O)n(C[C@H]3OC[C@H](N)CO3)c2n1
